Laboratory results from US20050165104A1, “Biocidal agents and veterinary methods” (priority 2002, published 2005).
Marks after values point to notes of the source that are not given here.

Tested on: Candida albicans, Staphylococcus aureus, Beta Streptococcus, Escherichia coli, Aspergillus fumigatus, and Trichophyton rubrum
Experiment: Antimicrobial Diffusion Test, all organisms tested
Assay type: cell-based
Details: 0.1M, Table 1 row 3
Description: (§1) The Antimicrobial Diffusion Test is used to determine the ability of a compound to inhibit growth of an organism. During the course of the test, each compound is treated as an unknown solution with an assigned number. After the data have been collected, the identity of the compound is assigned. In the test, a blood agar plate is inoculated with a known stock organism (fungus or bacteria). One drop of a numbered solution is applied to a freshly inoculated agar plate. A single numbered solution is applied per organism on a plate. The inoculated plate is examined on a daily basis for growth of the organism.
(§2) Areas of no microbial growth, or zones of inhibition are measured in millimeters and documented. If the plate is entirely covered with organism growth, there is no measurable zone of inhibition. After all zones of inhibition with the corresponding organisms and the solution number tested for sensitivity have been documented, each solution number is replaced by the correct solution name. The zones of inhibition are then used to establish relative in vitro resistance and sensitivity of the organism to the solution.
Table 1 provides data comparing the efficacy of a number of different antimicrobial compounds of the present invention. Compounds were assayed at varying concentrations using the Antimicrobial Diffusion Test described above. Summary for data on the following compounds is listed: 3-n-propylphenol, 3-pentylphenol, 5-propylresorcinol, 3-isobutylphenol, 4-hexylresorcinol, phenol, phenylacetic acid, 3-hydroxoctanoic acid, a reconstituted metapleural gland secretion from Atta sexdens worker ant, a reconstituted metapleural gland secretion from Atta sexdens soldier ant, a reconstituted metapleural gland secretion from Atta cephalotes worker ant, a reconstituted metapleural gland secretion from Atta cephalotes soldier ant, metapleural gland secretion from C. deformis, Mycocide, Tineacide, and Penlac. […]

In the case of `CCCCCc1cccc(O)c1` [3-pentylphenol], the “spectrum of effectiveness on the microorganisms tested (in words)” value is reported as “exceptional broad spectrum effectiveness”.

Same assay, conditions: summary of Table 1

For `CCCc1cccc(O)c1` [3-n-propylphenol], the “specificity of inhibitory activities over the organisms tested (in words)” value was “ability to inhibit growth of all organisms tested”.
For `CCCCCc1cccc(O)c1` [3-pentylphenol], the “specificity of inhibitory activities over the organisms tested (in words)” value was “ability to inhibit growth of all organisms tested”.

Tested on: not listed separately
Experiment: pH of the tested solution
Assay type: physicochemical
Details: test solution 0.01M (extracts: 0.01M total components)

`CCCCCCCC(O)CC(=O)O` (centres unmarked) [3-hydroxydecanoic acid] and `CCCCCCCCCC(O)CC(=O)O` (centres unmarked) [3-hydroxydodecanoic acid] are the same in pH: 6.5 for the first, 6.5 for the second.

`CCCc1cccc(O)c1` [3-n-propylphenol] and `CCCCCc1cccc(O)c1` [3-pentylphenol] are the same in pH: 6.5 for the first, 6.5 for the second.

With `CCCCCCc1ccc(O)cc1O` [4-hexylresorcinol] the pH was 6.5.

Same assay, conditions: test solution 0.1M (extracts: 0.1M total components)

`CCCCCC(O)CC(=O)O` (centres unmarked) [3-hydroxoctanoic acid] and `CCCCCCCC(O)CC(=O)O` (centres unmarked) [3-hydroxydecanoic acid] are the same in pH: 6 for the first, 6 for the second.

Going from `CCCCCCCCCC(O)CC(=O)O` (centres unmarked) [3-hydroxydodecanoic acid] to `CCCCCCc1ccc(O)cc1O` [4-hexylresorcinol], the pH rises from 6 to 6.5.

`CCCc1cccc(O)c1` [3-n-propylphenol] and `CCCCCc1cccc(O)c1` [3-pentylphenol] are the same in pH: 6.5 for the first, 6.5 for the second.

`CCCCCc1cc(O)cc(O)c1` [5-pentylresorcinol] and `CCCc1cc(O)cc(O)c1` [5-propylresorcinol] are the same in pH: 6.5 for the first, 6.5 for the second.

Tested on: Trichophyton rubrum
Experiment: Antimicrobial Diffusion Test (blood agar plate, zone of inhibition)
Assay type: cell-based
Details: 0.01M; value marked * (footnote not given)
Description: as §1, §2

With `CCCc1cccc(O)c1` [3-n-propylphenol] the “Inhibition, T. rubrum (zone of inhibition / relative potency)” value was 12* mm.
For `CCCCCc1cccc(O)c1` [3-pentylphenol], the “Inhibition, T. rubrum (zone of inhibition / relative potency)” value was 16* mm.
With `CCCCCCc1ccc(O)cc1O` [4-hexylresorcinol] the “Inhibition, T. rubrum (zone of inhibition / relative potency)” value was 29* mm.

Same assay, conditions: 0.01M; value unmarked

In the case of `CCCCCCCCCC(O)CC(=O)O` (centres unmarked) [3-hydroxydodecanoic acid], the “Inhibition, T. rubrum (zone of inhibition / relative potency)” value is reported as 10 mm.

Same assay, conditions: 0.1M (extracts: 0.1M total components); value marked ** (footnote not given)

Compared with `CCCc1cccc(O)c1` [3-n-propylphenol], `CCCCCc1cccc(O)c1` [3-pentylphenol] is higher in “Inhibition, T. rubrum (zone of inhibition / relative potency)” value: 14 mm for the first, 45 mm for the second.

Same assay, conditions: 0.1M (extracts: 0.1M total components); value unmarked

Compared with `CCCCCCCC(O)CC(=O)O` (centres unmarked) [3-hydroxydecanoic acid], `CCCCCCCCCC(O)CC(=O)O` (centres unmarked) [3-hydroxydodecanoic acid] is higher in “Inhibition, T. rubrum (zone of inhibition / relative potency)” value: 12 mm for the first, 14 mm for the second.

Same assay, conditions: 0.1M each

For `CCCCCc1cccc(O)c1` [3-pentylphenol], the “side-by-side comparison against Penlac 0.1M on Trichophyton rubrum (in words)” value was “unexpectedly superior”.

Same assay, conditions: 0.1M; value marked * (footnote not given)

First: CCCc1cccc(O)c1 [3-n-propylphenol]
Second: CCCCCc1cccc(O)c1 [3-pentylphenol]
The “Inhibition, T. rubrum (zone of inhibition / relative potency)” value of the first is lower: 21 mm for the first, 65 mm for the second.

For `CCCCCCc1ccc(O)cc1O` [4-hexylresorcinol], the “Inhibition, T. rubrum (zone of inhibition / relative potency)” value was 38* mm.
In the case of `CCCCCc1cc(O)cc(O)c1` [5-pentylresorcinol], the “Inhibition, T. rubrum (zone of inhibition / relative potency)” value is reported as 47* mm.
In the case of `CCCc1cc(O)cc(O)c1` [5-propylresorcinol], the “Inhibition, T. rubrum (zone of inhibition / relative potency)” value is reported as 14* mm.

Tested on: Candida albicans
Experiment: as above
Assay type: cell-based
Details: 0.01M (extracts: 0.01M total components)
Description: as §1, §2

Going from `CCCc1cccc(O)c1` [3-n-propylphenol] to `CCCCCc1cccc(O)c1` [3-pentylphenol], the “Inhibition, Candida Albicans (zone of inhibition / relative potency)” value rises from 13 mm to 15 mm.

With `CCCCCCc1ccc(O)cc1O` [4-hexylresorcinol] the “Inhibition, Candida Albicans (zone of inhibition / relative potency)” value was 19 mm.

Same assay, conditions: 0.1M (extracts: 0.1M total components); higher number = greater inhibition

Compared with `CCCCCC(O)CC(=O)O` (centres unmarked) [3-hydroxoctanoic acid], `CCCCCCCC(O)CC(=O)O` (centres unmarked) [3-hydroxydecanoic acid] is higher in “Inhibition, Candida Albicans (zone of inhibition / relative potency)” value: 12 mm for the first, 15 mm for the second.

First: CCCCCCCCCC(O)CC(=O)O (centres unmarked) [3-hydroxydodecanoic acid]
Second: CCCCCCc1ccc(O)cc1O [4-hexylresorcinol]
The “Inhibition, Candida Albicans (zone of inhibition / relative potency)” value of the first is lower: 8 mm for the first, 20 mm for the second.

Going from `CCCc1cccc(O)c1` [3-n-propylphenol] to `CCCCCc1cccc(O)c1` [3-pentylphenol], the “Inhibition, Candida Albicans (zone of inhibition / relative potency)” value rises from 13 mm to 21 mm.

Going from `CCCCCc1cc(O)cc(O)c1` [5-pentylresorcinol] to `CCCc1cc(O)cc(O)c1` [5-propylresorcinol], the “Inhibition, Candida Albicans (zone of inhibition / relative potency)” value falls from 19 mm to 14 mm.

Tested on: Beta Streptococcus
Experiment: as above
Assay type: cell-based
Details: 0.1M (extracts: 0.1M total components)
Description: as §1, §2

With `CCCCCC(O)CC(=O)O` (centres unmarked) [3-hydroxoctanoic acid] the “Inhibition, Beta Strep (zone of inhibition / relative potency)” value was 12 mm.

Same assay, conditions: Streptococcus, read-out: Inhibition, Beta Strep (zone of inhibition / relative potency)

`CCCc1cc(O)cc(O)c1` [5-propylresorcinol] gave a zone of inhibition at 100000 µM of 14 mm.

Same assay, conditions: Streptococcus; 0.01M (extracts: 0.01M total components); read-out: Inhibition, Beta Strep (zone of inhibition / relative potency)

Going from `CCCCCCCC(O)CC(=O)O` (centres unmarked) [3-hydroxydecanoic acid] to `CCCCCCc1ccc(O)cc1O` [4-hexylresorcinol], the zone of inhibition at 10000 µM rises from 12 mm to 16 mm.

`CCCCCc1cccc(O)c1` [3-pentylphenol] showed a zone of inhibition at 10000 µM of 15 mm.

Same assay, conditions: Streptococcus; 0.1M (extracts: 0.1M total components); read-out: Inhibition, Beta Strep (zone of inhibition / relative potency)

Compared with `CCCCCCCC(O)CC(=O)O` (centres unmarked) [3-hydroxydecanoic acid], `CCCCCCCCCC(O)CC(=O)O` (centres unmarked) [3-hydroxydodecanoic acid] is lower in zone of inhibition at 100000 µM: 11 mm for the first, 10 mm for the second.

First: CCCc1cccc(O)c1 [3-n-propylphenol]
Second: CCCCCc1cccc(O)c1 [3-pentylphenol]
The zone of inhibition at 100000 µM of the first is lower: 15 mm for the first, 18 mm for the second.

Compared with `CCCCCCc1ccc(O)cc1O` [4-hexylresorcinol], `CCCCCc1cc(O)cc(O)c1` [5-pentylresorcinol] is higher in zone of inhibition at 100000 µM: 17 mm for the first, 20 mm for the second.

With `O=C(O)Cc1c[nH]c2ccccc12` [indoleacetic acid] the zone of inhibition at 100000 µM was 6 mm.

Tested on: Staphylococcus aureus
Experiment: as above
Assay type: cell-based
Details: 0.01M
Description: as §1, §2

First: CCCCCc1cccc(O)c1 [3-pentylphenol]
Second: CCCCCCc1ccc(O)cc1O [4-hexylresorcinol]
The “Inhibition, Staph aureus (zone of inhibition / relative potency)” value of the first is lower: 14 mm for the first, 16 mm for the second.

Same assay, conditions: 0.1M (extracts: 0.1M total components)

Compared with `CCCCCCCC(O)CC(=O)O` (centres unmarked) [3-hydroxydecanoic acid], `CCCCCCCCCC(O)CC(=O)O` (centres unmarked) [3-hydroxydodecanoic acid] is lower in “Inhibition, Staph aureus (zone of inhibition / relative potency)” value: 12 mm for the first, 9 mm for the second.

Compared with `CCCc1cccc(O)c1` [3-n-propylphenol], `CCCCCc1cccc(O)c1` [3-pentylphenol] is higher in “Inhibition, Staph aureus (zone of inhibition / relative potency)” value: 14 mm for the first, 18 mm for the second.

First: CCCCCCc1ccc(O)cc1O [4-hexylresorcinol]
Second: CCCCCc1cc(O)cc(O)c1 [5-pentylresorcinol]
The “Inhibition, Staph aureus (zone of inhibition / relative potency)” value of the first is lower: 15 mm for the first, 16 mm for the second.

Tested on: Escherichia coli
Experiment: as above
Assay type: cell-based
Details: 0.01M
Description: as §1, §2

First: CCCCCc1cccc(O)c1 [3-pentylphenol]
Second: CCCCCCc1ccc(O)cc1O [4-hexylresorcinol]
The “Inhibition, E. coli (zone of inhibition / relative potency)” value of the first is lower: 16 mm for the first, 17 mm for the second.

Same assay, conditions: 0.1M (extracts: 0.1M total components)

`CCCCCC(O)CC(=O)O` (centres unmarked) [3-hydroxoctanoic acid] and `CCCCCCCC(O)CC(=O)O` (centres unmarked) [3-hydroxydecanoic acid] are the same in “Inhibition, E. coli (zone of inhibition / relative potency)” value: 13 mm for the first, 13 mm for the second.

Compared with `CCCCCCCCCC(O)CC(=O)O` (centres unmarked) [3-hydroxydodecanoic acid], `CCCCCCc1ccc(O)cc1O` [4-hexylresorcinol] is higher in “Inhibition, E. coli (zone of inhibition / relative potency)” value: 10 mm for the first, 15 mm for the second.

Going from `CCCc1cccc(O)c1` [3-n-propylphenol] to `CCCCCc1cccc(O)c1` [3-pentylphenol], the “Inhibition, E. coli (zone of inhibition / relative potency)” value falls from 17 mm to 15 mm.

Compared with `CCCCCc1cc(O)cc(O)c1` [5-pentylresorcinol], `CCCc1cc(O)cc(O)c1` [5-propylresorcinol] is lower in “Inhibition, E. coli (zone of inhibition / relative potency)” value: 17 mm for the first, 15 mm for the second.

Tested on: Aspergillus fumigatus
Experiment: as above
Assay type: cell-based
Details: 0.01M
Description: as §1, §2

Going from `CCCCCc1cccc(O)c1` [3-pentylphenol] to `CCCCCCc1ccc(O)cc1O` [4-hexylresorcinol], the “Inhibition, Asp fumigatus (zone of inhibition / relative potency)” value rises from 9 mm to 16 mm.

Same assay, conditions: 0.1M (extracts: 0.1M total components)

First: CCCCCCCC(O)CC(=O)O (centres unmarked) [3-hydroxydecanoic acid]
Second: CCCCCCCCCC(O)CC(=O)O (centres unmarked) [3-hydroxydodecanoic acid]
The “Inhibition, Asp fumigatus (zone of inhibition / relative potency)” value of the first is higher: 13 mm for the first, 7 mm for the second.

Compared with `CCCc1cccc(O)c1` [3-n-propylphenol], `CCCCCc1cccc(O)c1` [3-pentylphenol] is higher in “Inhibition, Asp fumigatus (zone of inhibition / relative potency)” value: 10 mm for the first, 25 mm for the second.

`CCCCCCc1ccc(O)cc1O` [4-hexylresorcinol] and `CCCCCc1cc(O)cc(O)c1` [5-pentylresorcinol] are the same in “Inhibition, Asp fumigatus (zone of inhibition / relative potency)” value: 20 mm for the first, 20 mm for the second.

Same assay, conditions: 0.1 M, FIG. 5

For `CCCCCc1cccc(O)c1` [3-pentylphenol], the “inhibition of Aspergillus fumigatus growth (in words)” value was “effective at inhibiting Aspergillus fumigatus growth”.
